The values below come from PMC4492759, “Pharmacological profiling of the hemodynamic effects of cannabinoid ligands: a combined in vitro and in vivo approach” (Pharmacology Research & Perspectives, 2015).

Like-named read-outs stand apart in the source and are kept apart here.

The subject of series [1] is anesthetized Sprague–Dawley (SD) rats. As to the kind of experiment: Hemodynamic responses (MABP, HR) in anesthetized normotensive rats. Type of series: in vivo, rat. The method, then: (§1) All experiments performed under terminal anesthesia were carried out following approval by Robert Gordon University Animal Ethics Panel. Anesthesia was induced in male SD rats (200–300 g) by sodium pentobarbital [60 mg kg^−1 intraperitoneal (i.p.) injection]. Male/female WT and GPR55^−/− mice (25–35 g) were anesthetized with a mixture of ketamine (120 mg kg^−1) and xylazine (16 mg kg^−1) via i.p. injection. For both species the trachea was cannulated to allow artificial respiration with room air when required (54 strokes min^−1 and tidal volume 1.5 mL 100 g^−1 for rats; 120 strokes min^−1 and tidal volume 100 μL 10 g^−1 for mice) and the left carotid artery and right jugular vein were cannulated for the measurement of arterial BP (MLT844 Physiological Pressure Transducer; AD Instruments, Oxford, UK) and drug administration, respectively. Core temperature was monitored continuously and maintained at 37–38°C with the aid of a Vetcare heated pad (Harvard Apparatus Ltd., Boston, Massachusetts, USA). Anesthesia was monitored by foot pinch reflex and maintained throughout by administration of additional doses of anesthetic (rats: 3–4 mg kg^−1 of sodium pentobarbital salt i.v.; mice: 50 μL 25 g^−1of ketamine/xylazine i.p.) every 40 min, or as required. […] Heart rate (HR) was calculated from the ECG and recorded throughout the entire experimental period. After a stabilization period of approximately 15 min dose–response experiments were carried out as described below.
(§2) As a preliminary assessment of the effects of ACEA on arterial BP, a single bolus intravenous dose (3 mg kg^−1; selected from the literature as a dose known to produce a depressor response) was given to anesthetized rats. […] The time interval between drug administrations was 10–15 min to allow BP values to return to predrug values.

The test system of series [2] is anesthetized WT and GPR55−/− mice. As to the kind of experiment: Hemodynamic responses (MABP, HR) in anesthetized WT and GPR55−/− mice. Type of series: in vivo, mouse. The method, then:
as §1, §2

The next series addresses T1, rat GPR55 (Rattus norvegicus, UniProt F1MAK4).
T1 construct: expressed in transfected cells; host or cells: HEK293s, transient transfection; membranes prepared
T1 sequence (F1MAK4 1-319): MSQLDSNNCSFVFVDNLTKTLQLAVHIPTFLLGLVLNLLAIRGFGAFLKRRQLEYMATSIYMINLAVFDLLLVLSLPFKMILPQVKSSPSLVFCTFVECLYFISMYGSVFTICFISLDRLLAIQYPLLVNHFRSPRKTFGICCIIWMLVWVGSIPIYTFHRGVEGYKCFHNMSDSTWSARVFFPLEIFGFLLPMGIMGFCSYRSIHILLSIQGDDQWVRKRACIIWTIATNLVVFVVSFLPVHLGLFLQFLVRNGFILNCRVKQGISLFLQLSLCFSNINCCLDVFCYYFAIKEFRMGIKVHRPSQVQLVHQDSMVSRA
In words: [35S]-GTPγS binding, membranes of HEK293s cells transfected with rat GPR55. Type of series: biochemical. The method, then: (§3) HEK293s cells were transiently transfected with cDNA encoding rat or mouse CB1 or GPR55 and membranes were prepared as previously described (Ryberg et al. [2007]). In short, agonist activities in [^35S]-GTPγS binding assays were determined by the addition of ligand at 30°C for 45 min in membrane buffer [50 mmol/L NaCl, 5 mmol/L MgCl2, 0.5 mmol/L EDTA, 25 mmol/L HEPES (all Sigma, Gillingham, Dorset, UK); pH 7.4] containing 0.05 μg μL^−1 of membrane protein with 0.01% BSA, 25 μmol/L guanosine 5′-diphosphate (GDP), 100 μmol/L dithiothreitol (DTT), and 0.53 nmol/L [^35S]GTPγS (PerkinElmer) in a final volume of 200 μL. Antagonist assays were performed similarly, with the addition of an EC80 concentration of CP55940 as a nonselective CB1/CB2 agonist in conjunction with the ligand to be tested. Nonspecific binding was determined in the presence of 20 μmol/L unlabeled GTPγS. The reaction was terminated by addition of ice-cold wash buffer (50 mmol/L Tris-HCl, 5 mmol/L MgCl2, 50 mmol/L NaCl; pH 7.4) followed by rapid filtration under vacuum through 96-well B-glass fiber filter plates (PerkinElmer, Waltham, Massachusetts, USA) using a Biomek FX (Beckman Coulter, Bromma, Sweden). The filter plates were dried (30 min at 50°C) before scintillation liquid (PerkinElmer) was added onto the filters and the bound radioactivity was determined using a scintillation counter (Wallac). Data were fitted with a four-parameter logistic fit using the equation y = A + (B − A)/1 + ((C/x)^D), where A is no activation, B is full activation, C is the EC50, and D is the Hill slope. All data were based on at least three independent experiments.
In general terms: GTPγS is a poorly hydrolysed GTP analogue; its binding reports G protein activation.

A further series has as its target T2, mouse GPR55 (Mus musculus, UniProt Q3UJF0).
T2 construct: expressed in transfected cells; host or cells: HEK293s, transient transfection; membranes prepared
In words: [35S]-GTPγS binding, membranes of HEK293s cells transfected with mouse GPR55. It is filed as biochemical. As to conditions: mean ± SEM. The method, then: as §3

Series [3] is described as follows: Blood concentration estimated from dose and blood volume. The conditions noted are these: ACEA 3 mg kg−1; assuming total blood volume ∼20 mL in a 300 g rat. From the text: Therefore, in an attempt to determine whether GPR55 plays a role in the depressor response to ACEA we studied the hemodynamic responses in anesthetized WT and GPR55^−/− mice.
The next series addresses T3, rat CB1 (Rattus norvegicus, UniProt P20272).
T3 construct: expressed in transfected cells; host or cells: HEK293s, transient transfection; membranes prepared
In words: [35S]-GTPγS binding, membranes of HEK293s cells transfected with rat CB1. It is filed as biochemical. As to conditions: for EC50: mean ± SEM. The method, then:
(§4) Antagonist assays were performed similarly, with the addition of an EC80 concentration of CP55940 as a nonselective CB1/CB2 agonist in conjunction with the ligand to be tested. Nonspecific binding was determined in the presence of 20 μmol/L unlabeled GTPγS. The reaction was terminated by addition of ice-cold wash buffer (50 mmol/L Tris-HCl, 5 mmol/L MgCl2, 50 mmol/L NaCl; pH 7.4) followed by rapid filtration under vacuum through 96-well B-glass fiber filter plates (PerkinElmer, Waltham, Massachusetts, USA) using a Biomek FX (Beckman Coulter, Bromma, Sweden). The filter plates were dried (30 min at 50°C) before scintillation liquid (PerkinElmer) was added onto the filters and the bound radioactivity was determined using a scintillation counter (Wallac). Data were fitted with a four-parameter logistic fit using the equation y = A + (B − A)/1 + ((C/x)^D), where A is no activation, B is full activation, C is the EC50, and D is the Hill slope. All data were based on at least three independent experiments.

A further series addresses T4, mouse CB1 (Mus musculus, UniProt P47746).
T4 construct: expressed in transfected cells; host or cells: HEK293s, transient transfection; membranes prepared
As to the kind of experiment: [35S]-GTPγS binding, membranes of HEK293s cells transfected with mouse CB1. The conditions noted are these: mean ± SEM. Type of series: biochemical. The method, then: as §4

The subject of series [4] is conscious WT, CB1−/− and GPR55−/− mice. In words: Blood pressure and heart rate responses in conscious mice (WT, CB1−/−, GPR55−/−). The conditions noted are these: metoprolol (10 mg kg−1 i.v.); conscious GPR55−/− mice.
Where [5] appears, read: agonist mode, at least three experiments, read-out: GPR55 EC50, Mouse.
Setting [6] is: agonist mode, at least three experiments, read-out: CB1 EC50, Mouse.
Setting [7] is: antagonist mode, vs EC80 concentration of CP55940, read-out: CB1 EC50, Mouse (ligand behaved as an antagonist).

T3 sequence (P20272 whole entry): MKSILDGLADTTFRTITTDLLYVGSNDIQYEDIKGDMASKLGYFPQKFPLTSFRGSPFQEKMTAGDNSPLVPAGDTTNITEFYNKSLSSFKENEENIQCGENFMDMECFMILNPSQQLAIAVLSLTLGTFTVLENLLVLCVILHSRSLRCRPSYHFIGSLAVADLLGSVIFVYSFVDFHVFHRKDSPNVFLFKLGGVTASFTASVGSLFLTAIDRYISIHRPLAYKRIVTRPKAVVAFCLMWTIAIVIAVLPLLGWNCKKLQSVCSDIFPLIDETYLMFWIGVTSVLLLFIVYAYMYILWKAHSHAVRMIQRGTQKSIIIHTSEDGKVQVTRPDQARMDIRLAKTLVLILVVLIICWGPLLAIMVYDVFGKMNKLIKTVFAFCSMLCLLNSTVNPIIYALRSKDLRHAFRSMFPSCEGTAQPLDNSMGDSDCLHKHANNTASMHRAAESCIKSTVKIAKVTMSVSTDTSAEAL
T4 sequence (P47746 whole entry): as the sequence (P20272 whole entry) above, with E95D counted along it
T2 sequence (Q3UJF0 whole entry): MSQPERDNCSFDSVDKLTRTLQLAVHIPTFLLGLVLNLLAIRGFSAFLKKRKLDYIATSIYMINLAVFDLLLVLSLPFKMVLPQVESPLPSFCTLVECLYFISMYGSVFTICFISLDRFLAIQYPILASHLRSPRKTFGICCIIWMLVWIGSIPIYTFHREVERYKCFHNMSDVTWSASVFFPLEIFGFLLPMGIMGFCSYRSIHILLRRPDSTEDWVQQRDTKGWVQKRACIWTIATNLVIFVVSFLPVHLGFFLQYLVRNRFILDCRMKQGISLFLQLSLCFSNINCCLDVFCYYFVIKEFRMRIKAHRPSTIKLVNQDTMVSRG

As usually defined, the EC50 is the midpoint of the concentration-response curve. For `CCCCC/C=C\C/C=C\C/C=C\C/C=C\CCCC(=O)NCCCl` [ACEA, arachidonyl-2′-chloroethylamide], the “effect on HR” value in series [1] (ACEA single bolus 3 mg kg−1 i.v.) was “no effect”; in series [2] (ACEA 3 mg kg−1, WT and GPR55−/− mice), “nor was there any measurable effect”. Further, the “blood pressure (MABP) response” value in series [1] (ACEA single bolus 3 mg kg−1 i.v., P < 0.001) is “reproducible and pronounced depressor response”. Further, in series [2] (ACEA 3 mg kg−1, either WT or GPR55−/− mice), the “depressor response distinguishable from vehicle” value is “did not produce a depressor response”. The EC50 at rat GPR55 (agonist mode, mean ± SEM, at least three experiments, read-out: GPR55 EC50, Rat) was determined as 78 ± 4 nM; at mouse GPR55 (setting [5]) it was 62 ± 3 nM; at rat CB1 (agonist mode, at least three experiments, read-out: CB1 EC50, Rat) it was 7 ± 1 nM; at mouse CB1 (setting [6]), 3 ± 0.5 nM. Moreover, the “expected total (not necessarily free) blood concentration” value in series [3] is 100 to 120 nmol/L. Also, the “higher affinity for CB1 as compared to GPR55” value on rat CB1 (GTPγS binding, both mouse and rat) is “approximately 10 fold”.

Regarding `CCCCC/C=C\C/C=C\C/C=C\C/C=C\CCCC(=O)NCCO` [AEA, anandamide], the values for the EC50 on rat GPR55 and on mouse GPR55 (setting [5]) were 24 ± 3 nM and 38 ± 3 nM, respectively.

With `Cc1c(C(=O)NN2CCCCC2)nn(-c2ccc(Cl)cc2Cl)c1-c1ccc(I)cc1` [AM251, 1-(2,4-dichlorophenyl)-5-(4-iodophenyl)-4-methyl-N-(piperidin-1-yl)-1H-pyrazole-3-carboxamide], the “effect on magnitude and duration of the depressor response to ACEA” value in series [1] (AM251 1 and 3 mg kg−1, ACEA 3 mg kg−1, dose-dependent, P < 0.01) is reported as “attenuated”. In addition, the “depressor response in the presence of CBD” value in series [2] (AM251 (1 and 3 mg kg−1) with CBD (50 μg kg−1), mice) is on record as “augmented”. Also, the EC50 on rat GPR55 came out at 74 ± 3 nM; at mouse GPR55 (setting [5]) it was 68 ± 3 nM; at mouse CB1 (setting [7]), 13 ± 2 nM. The “higher potency for CB1 (antagonist) than GPR55 (agonist)” value at rat CB1 (GTPγS binding, rat and mouse) is “three to five”.

As to `Cc1c(C(=O)NN2CCOCC2)nn(-c2ccc(Cl)cc2Cl)c1-c1ccc(I)cc1` [AM281, 1-(2,4-dichlorophenyl)-5-(4-iodophenyl)-4-methyl-N-4-morpholinyl-1H-pyrazole-3-carboxamide], the EC50 on rat GPR55 was above 30000 nM; on mouse GPR55 (setting [5]), above 30000 nM; at rat CB1 (antagonist mode, vs EC80 concentration of CP55940, read-out: CB1 EC50, Rat (ligand behaved as an antagonist)), 13 ± 4 nM; on mouse CB1 (setting [7]), 8 ± 1 nM.

For `C=C(C)[C@@H]1CCC(C)=C[C@H]1c1c(O)cc(CCCCC)cc1O` [CBD, cannabidiol], in series [1] (CBD 50 μg kg−1, any experiments (rats and mice), data not shown), the “effect on HR” value is “unaffected”. In series [1] (CBD alone 50 μg kg−1, ACEA 3 mg kg−1, P < 0.05), the “reduction of AAC value of the depressor response to ACEA” value is “approximately 50%”. Moreover, the blood pressure response result was “small but measurable and statistically significant depressor response” in series [1] (CBD alone 50 μg kg−1 single bolus, P < 0.05); “depressor responses of a similar magnitude” in series [2] (CBD alone 50 μg kg−1, WT and GPR55−/− mice). In addition, the EC50 is 624 ± 13 nM at rat GPR55; 780 ± 8 nM on mouse GPR55 (antagonist mode, vs EC80 concentration of CP55940, read-out: GPR55 EC50, Mouse (ligand behaved as an antagonist)); above 30000 nM at mouse CB1 (setting [6]).

With `COCCc1ccc(OCC(O)CNC(C)C)cc1` (stereo not drawn) [metoprolol], the “effect on HR” value in series [4] was “profound and long-lasting bradycardia”.
